Measured values as given in patent US12168673B2 (Mitopower, Inc., priority 2022, dated 2024).

How the values were obtained:
[1] = Human hepatocyte clearance; assay type: in vitro ADME; conditions: human hepatocytes
Experimental: A hepatocyte vial was taken out from the liquid nitrogen tank and was thawed in a water bath maintained at 37° C. The thawed cell suspension was transferred into a torsion tube containing 50 mL of thawing media (Xenotech). The thawing media containing hepatocytes was centrifuged at 1000 rpm for 5 min, the supernatant was discarded and the pellet was resuspended in 2 ml of Xenotech OptiIncubate Media. The cells were counted by using a haemocytometer after mixing an aliquot of cell suspension with equal volume of trypan blue. The cell suspension was diluted to a working density of 2 million cells with DMEM media without FBS/incubation media.
The assay was performed in duplicates (n=2). 150 μL of 2 million cell working stock of hepatocyte cell suspension was added to a 24 well plate and incubated in a 37° C. incubator, with speed of 500 RPM for 10 min. 150 μL of 2 μM working stock of test compound was incubated separately. The reaction at 0, 15, 30, 60 and 90 min was stopped by precipitating 20 μL of incubation mixture with 200 μL of acetonitrile containing internal standard. […] The supernatant was separated and diluted 1:1 with water before injecting in LC-MS/MS analysis.

[2] = Stability in solutions (pH range, simulated gastric fluid, simulated intestinal fluid); assay type: physicochemical
Experimental: 1 mg/ml solutions of compound 100 were prepared in each buffer, diluted to 0.1 mg/ml in methanol at each time point and analyzed as follows: Gemini C-18, 250×4.6 mm, 5 im, Mobile Phase: Methanol Isocratic Flow Rate: 0.4 mL/min.

[3] = test system: Jurkat Cells; assay: Cellular NAD+ levels in Jurkat cells (LCMS/MS); assay type: cell-based; conditions: 30 μM, four hours of incubation
Experimental: Compounds 100, 101 and 102 were weighted out to prepare 60 μM stock solutions in RPMI media. 200 ng/mL solution of Rac-tenofovir d6 (Vivan Life-Sciences) was prepared in methanol (MeOH) and placed at −20° C. until use.
Jurkat Cells, sourced from NCCS Pune, were cultured in RPMI media containing FBS & Antibiotics. Cells from different flasks (90% confluent) were pooled into a 15 mL conical tube and centrifuged for 5 mins at 1200 rpm for 5 mins. The supernatant solution was discarded, and the pellet was washed with 5 mL sterile PBS (without Ca^2+ & Mg^2+). The tube was then centrifuged at 1200 rpm for 5 mins and the supernatant was discarded. The cell pellet was resuspended in 7 mL of RPMI media, and a cell count was done using 10 uL of the cell solution. 1.5 million cells from the cell solution were seeded into 1.5 mL microcentrifuge tubes. […] The tubes were placed in racks and gently swirled to mix the compounds into the media containing the cells. These tubes were then incubated for 4 hours in a 37° C. incubator at 5% CO2. After 4 hours of incubation the cells were spun down at 1000 rpm for 10 mins, the supernatant was discarded carefully, and cells were snap frozen in liquid nitrogen. When the samples were run, the extraction of the cells was on ice, cells were lysed using 20 uL deionized water and then ice cold 80% methanol containing the internal standard—Rac-Tenofovir D was added. The tubes were then vortexed at 2500 rpm for 8 minutes and then centrifuged at […] for 10 minutes. 150 uL of the supernatant was carefully transferred to HPLC vials and was analyzed for NAD^+ on the Abscised 4000 Q Trap LCMS/MS system. A C18, 3.5 μm, 2.1×100 mm, Bridge Column was used in the LC. The mobile phase consisted of 10 mM ammonium acetate with 0.1% acetic acid and 0.1% hexylamine as Solvent-A and 10 mM Ammonium acetate with 0.1% acetic acid and 0.1% hexylamine in 95/5 MeOH/H2O as Solvent-B. The gradient used was 0 mins-0.0% B, 0.5 mins-100% B, 1.5 mins-100% B, 3.0 mins-100% B, 3.1 mins-0.0% B, 7.0-STOP. The column flow rate was 0.5 mL/min. The sample injection volume was […].

[4] = Solid state stability (purity by UPLC); assay type: physicochemical
Experimental: Compounds 100, 101 and 102 were kept in glass vials at three different locations at temperatures of […], 2-8° C. and −20° C. in order to assess solid state stability at room temperature, refrigerated conditions and in a deep freezer. The compounds from these vials were assessed for purity by UPLC at three different timepoints 0 hrs, 24 hrs and 48 hrs. Table 2 depicts the results obtained for solid state stability at 25° C., 2-8° C. and −20° C. respectively. Purity measurements were made at 0 hrs, 24 hours and 48 hours.

Compound: O=C(OC[C@H]1OC(O)[C@H](O)[C@@H]1O)c1ccccn1 (stereo partly shown) [Compound 102, (3,4,5-trihydroxytetrahydrofuran-2-yl) methyl picolinate]
- half-life at 1 μM [1]: 45.7 min
- hepatocyte CLint at 1 μM [1]: 15.2 µL/min/1e6 cells
- % remaining ([2]; SGF (simulated gastric fluid), 0 h): 95.54%
- % remaining ([2]; SGF (simulated gastric fluid), 1 week): 91.04%
- % remaining ([2]; SGF (simulated gastric fluid), 1 h): 94.73%
- % remaining ([2]; SGF (simulated gastric fluid), 2 h): 93.68%
- % remaining ([2]; SGF (simulated gastric fluid), 4 h): 93.65%
- % remaining ([2]; SGF (simulated gastric fluid), 8 h): 93.69%
- % remaining ([2]; SGF (simulated gastric fluid), 24 h): 93.61%
- % remaining ([2]; SGF (simulated gastric fluid), 48 h): 93.58%
- % remaining ([2]; SIF (simulated intestinal fluid), 0 h): 96.45%
- % remaining ([2]; SIF (simulated intestinal fluid), 1 week): 84.49%
- % remaining ([2]; SIF (simulated intestinal fluid), 1 h): 96.01%
- % remaining ([2]; SIF (simulated intestinal fluid), 2 h): 96.02%
- % remaining ([2]; SIF (simulated intestinal fluid), 4 h): 95.96%
- % remaining ([2]; SIF (simulated intestinal fluid), 8 h): 95.77%
- % remaining ([2]; SIF (simulated intestinal fluid), 24 h): 94.28%
- % remaining ([2]; SIF (simulated intestinal fluid), 48 h): 93.75%
- % remaining ([2]; pH 1, 0 h): 95.73%
- % remaining ([2]; pH 1, 1 week): 95.56%
- % remaining ([2]; pH 1, 1 h): 95.69%
- % remaining ([2]; pH 1, 2 h): 95.64%
- % remaining ([2]; pH 1, 4 h): 95.61%
- % remaining ([2]; pH 1, 8 h): 95.64%
- % remaining ([2]; pH 1, 24 h): 95.61%
- % remaining ([2]; pH 1, 48 h): 95.64%
- % remaining ([2]; pH 2, 0 h): 95.67%
- % remaining ([2]; pH 2, 1 week): 95.39%
- % remaining ([2]; pH 2, 1 h): 95.65%
- % remaining ([2]; pH 2, 2 h): 95.66%
- % remaining ([2]; pH 2, 4 h): 95.64%
- % remaining ([2]; pH 2, 8 h): 95.67%
- % remaining ([2]; pH 2, 24 h): 95.56%
- % remaining ([2]; pH 2, 48 h): 95.54%
- % remaining ([2]; pH 4, 0 h): 95.37%
- % remaining ([2]; pH 4, 1 week): 94.76%
- % remaining ([2]; pH 4, 1 h): 95.32%
- % remaining ([2]; pH 4, 2 h): 95.27%
- % remaining ([2]; pH 4, 4 h): 95.25%
- % remaining ([2]; pH 4, 8 h): 95.26%
- % remaining ([2]; pH 4, 24 h): 95.26%
- % remaining ([2]; pH 4, 48 h): 95.05%
- % remaining ([2]; pH 6, 0 h): 96.31%
- % remaining ([2]; pH 6, 1 week): 94.47%
- % remaining ([2]; pH 6, 1 h): 96.32%
- % remaining ([2]; pH 6, 2 h): 96.26%
- % remaining ([2]; pH 6, 4 h): 96.27%
- % remaining ([2]; pH 6, 8 h): 96.25%
- % remaining ([2]; pH 6, 24 h): 95.73%
- % remaining ([2]; pH 6, 48 h): 95.66%
- % remaining ([2]; pH 7.4, 0 h): 95.8%
- % remaining ([2]; pH 7.4, 1 week): 61.5%
- % remaining ([2]; pH 7.4, 1 h): 95.7%
- % remaining ([2]; pH 7.4, 2 h): 94.95%
- % remaining ([2]; pH 7.4, 4 h): 94.34%
- % remaining ([2]; pH 7.4, 8 h): 93.43%
- % remaining ([2]; pH 7.4, 24 h): 90.13%
- % remaining ([2]; pH 7.4, 48 h): 83.6%
- % remaining ([2]; pH 9, 0 h): 94.05%
- % remaining ([2]; pH 9, 1 week): 0%
- % remaining ([2]; pH 9, 1 h): 74.72%
- % remaining ([2]; pH 9, 2 h): 56.28%
- % remaining ([2]; pH 9, 4 h): 49.14%
- % remaining ([2]; pH 9, 8 h): 23.34%
- % remaining ([2]; pH 9, 24 h): 14.94%
- % remaining ([2]; pH 9, 48 h): 0.63%
- NAD+ level increase compared to untreated cells [3]: showed statistical significance in terms of NAD^+ level increases
- Solid State Stability (% Purity) ([4]; 2-8° C., 0 hr): 95.28%
- Solid State Stability (% Purity) ([4]; 2-8° C., 24 hr): 95.18%
- Solid State Stability (% Purity) ([4]; 2-8° C., 48 hr): 95.45%
- Solid State Stability (% Purity) ([4]; 25° C., 0 hr): 95.60%
- Solid State Stability (% Purity) ([4]; 25° C., 24 hr): 95.55%
- Solid State Stability (% Purity) ([4]; 25° C., 48 hr): 95.23%
- Solid State Stability (% Purity) ([4]; −20° C., 0 hr): 95.26%
- Solid State Stability (% Purity) ([4]; −20° C., 24 hr): 95.27%
- Solid State Stability (% Purity) ([4]; −20° C., 48 hr): 95.28%
